ChEMBL document CHEMBL3297717, “Synthesis and potent ionophoric activity of a squaramide-linked bis(choloyl) conjugate” (Bioorg Med Chem Lett, 2014)
Active and inactive are the calls of the source. The calls are words filed in the database; no cut-off is given here.

Columns and labels:
[1] = Ionophoric activity across egg-yolk L-alpha-phosphatidylcholine-based liposomal membrane assessed as induction of pH discharge in membrane by measuring initial rate constant after 21 mins by Hill plot analysis
[2] = Ionophoric activity across egg-yolk L-alpha-phosphatidylcholine-based liposomal membrane assessed as induction of pH discharge in membrane at 3 mol% after 20 mins by pyramine dye-based fluorescence assay in presence of NaCl
[3] = Ionophoric activity across egg-yolk L-alpha-phosphatidylcholine-based liposomal membrane assessed as induction of pH discharge in membrane at 3 mol% after 20 mins by pyramine dye-based fluorescence assay in presence of CsCl
[4] = Ionophoric activity across egg-yolk L-alpha-phosphatidylcholine-based liposomal membrane dispersed in HEPES buffer containing Na2SO4 assessed as chloride efflux at 3 mol% after 5 mins
[5] = Ionophoric activity across egg-yolk L-alpha-phosphatidylcholine-based liposomal membrane assessed as induction of pH discharge in membrane at 3 mol% after 20 mins by pyramine dye-based fluorescence assay in presence of NaBr
[6] = Ionophoric activity across egg-yolk L-alpha-phosphatidylcholine-based liposomal membrane assessed as induction of pH discharge in membrane at 3 mol% after 20 mins by pyramine dye-based fluorescence assay in presence of NaNO3
[7] = Ionophoric activity across egg-yolk L-alpha-phosphatidylcholine-based liposomal membrane assessed as induction of pH discharge in membrane at 1 to 5 mol% after 21 mins by pyramine dye-based fluorescence assay
[8] = Ionophoric activity across egg-yolk L-alpha-phosphatidylcholine-based liposomal membrane assessed as induction of pH discharge in membrane at 3 mol% after 20 mins by pyramine dye-based fluorescence assay in presence of LiCl
[9] = Ionophoric activity across egg-yolk L-alpha-phosphatidylcholine-based liposomal membrane assessed as induction of pH discharge in membrane after 21 mins by pyramine dye-based fluorescence assay
[10] = Ionophoric activity across egg-yolk L-alpha-phosphatidylcholine-based liposomal membrane assessed as induction of pH discharge in membrane at 3 mol% after 20 mins by pyramine dye-based fluorescence assay in presence of RbCl
[11] = Ionophoric activity across egg-yolk L-alpha-phosphatidylcholine-based liposomal membrane assessed as induction of pH discharge in membrane at 3 mol% after 20 mins by pyramine dye-based fluorescence assay in presence of NaI
[12] = Ionophoric activity across egg-yolk L-alpha-phosphatidylcholine-based liposomal membrane assessed as induction of pH discharge in membrane at 3 mol% after 20 mins by pyramine dye-based fluorescence assay in presence of KCl
[13] = Ionophoric activity across egg-yolk L-alpha-phosphatidylcholine-based liposomal membrane assessed as chloride efflux after 5 mins

Structure (SMILES) | Kin [1] | Activity [2] | Activity [3] | Activity [4] | Activity [5] | Activity [6] | Activity [7] | Activity [8] | EC50 [9] [mol%] | Activity [10] | Activity [11] | Activity [12] | Activity [13]
C[C@H](CCC(=O)N[C@@H](CCCCN)C(=O)NCc1ccc(CNC(=O)[C@H](CCCCN)NC(=O)CC[C@@H](C)[C@H]2CC[C@H]3[C@@H]4[C@H](O)C[C@@H]5C[C@H](O)CC[C@]5(C)[C@H]4C[C@H](O)[C@]23C)cc1)[C@H]1CC[C@H]2[C@@H]3[C@H](O)C[C@@H]4C[C@H](O)CC[C@]4(C)[C@H]3C[C@H](O)[C@]12C | 5.52 ×10⁻² /min |  |  |  |  |  |  |  |  |  |  |  | 
C[C@H](CCC(=O)NCc1ccc(CNC(=O)CC[C@@H](C)[C@H]2CC[C@H]3[C@@H]4[C@H](O)C[C@@H]5C[C@H](O)CC[C@]5(C)[C@H]4C[C@H](O)[C@]23C)cc1)[C@H]1CC[C@H]2[C@@H]3[C@H](O)C[C@@H]4C[C@H](O)CC[C@]4(C)[C@H]3C[C@H](O)[C@]12C | 2.23 ×10⁻² /min |  |  |  |  |  |  |  |  |  |  |  | 
C[C@H](CCC(=O)Nc1ccc(Nc2c(Nc3ccc(NC(=O)CC[C@@H](C)[C@H]4CC[C@H]5[C@@H]6[C@H](O)C[C@@H]7C[C@H](O)CC[C@]7(C)[C@H]6C[C@H](O)[C@]45C)cc3)c(=O)c2=O)cc1)[C@H]1CC[C@H]2[C@@H]3[C@H](O)C[C@@H]4C[C@H](O)CC[C@]4(C)[C@H]3C[C@H](O)[C@]12C | 0.6 min⁻¹ | Active | Active | Active | inactive | inactive | Active | Active | 3.82 | Active | inactive | Active | Dose-dependent effect
